# Results reported in patent US20250120967A1, “TYROSINE KINASES INHIBITORS AND USES THEREOF” (GREAT NOVEL THERAPEUTICS BIOTECH & MEDICALS CORPORATION, priority 2023, published 2025).
# Legend:
# Assay in all cases: NCI-60 screen (SRB)
# Assay type in all cases: cell-based
# 786-0 = details: Homo sapiens; 786-0, Renal Cancer
# Experimental: (§1) The human tumor cell lines of the cancer screening panel are grown in RPMI 1640 medium containing 5% fetal bovine serum and 2 mM L-glutamine. For a typical screening experiment, cells are inoculated into 96 well microtiter plates in 100 μL at plating densities ranging from 5,000 to 40,000 cells/well depending on the doubling time of individual cell lines. After cell inoculation, the microtiter plates are incubated at 37° C., 5% CO2, 95% air and 100% relative humidity for 24 h prior to addition of experimental drugs. After 24 h, two plates of each cell line are fixed in situ with TCA, to represent a measurement of the cell population for each cell line at the time of drug addition (Tz). Experimental drugs are solubilized in dimethyl sulfoxide at 400-fold the desired final maximum test concentration and stored frozen prior to use. At the time of drug addition, an aliquot of frozen concentrate is thawed and diluted to twice the desired final maximum test concentration with complete medium containing 50 µg/ml gentamicin. An additional four, 10-fold or M log serial dilutions are made to provide a total of five drug concentrations plus control. Aliquots of 100 μl of these different drug dilutions are added to the appropriate microtiter wells already containing 100 μl of medium, resulting in the required final drug concentrations. Following drug addition, the plates are incubated for an additional 48 h at 37° C., 5% CO2, 95% air, and 100% relative humidity. For adherent cells, the assay is terminated by the addition of cold TCA. Cells are fixed in situ by the gentle addition of 50 μl of cold 50% (w/v) TCA (final concentration, 10% TCA) and incubated for 60 minutes at 4° C. The supernatant is discarded, and the plates are washed five times with tap water and air dried. Sulforhodamine B (SRB) solution (100 l) at 0.4% (w/v) in 1% acetic acid is added to each well, and plates are incubated for 10 minutes at room temperature. After staining, unbound dye is removed by washing five times with 1% acetic acid and the plates are air dried. Bound stain is subsequently solubilized with 10 mM trizma base, and the absorbance is read on an automated plate reader at a wavelength of 515 nm. For suspension cells, the methodology is the same except that the assay is terminated by fixing settled cells at the bottom of the wells by gently adding 50 μl of 80% TCA (final concentration, 16% TCA).
# A549/ATCC = details: Homo sapiens, Non-Small Cell Lung Cancer
# Experimental: as §1
# BT-549 = details: Homo sapiens; BT-549, Breast Cancer
# Experimental: as §1
# CAKI-1 = details: Homo sapiens; CAKI-1, Renal Cancer
# Experimental: as §1
# EKVX = details: Homo sapiens, Non-Small Cell Lung Cancer
# Experimental: as §1
# HCC-2998 = details: Homo sapiens; HCC-2998, Colon Cancer
# Experimental: as §1
# HCT-116 = details: Homo sapiens; HCT-116, Colon Cancer
# Experimental: as §1
# HCT-15 = details: Homo sapiens; HCT-15, Colon Cancer
# Experimental: as §1
# HL-60(TB) = details: Homo sapiens, Leukemia
# Experimental: as §1
# HOP-62 = details: Homo sapiens; HOP-62, Non-Small Cell Lung Cancer
# Experimental: as §1
# HT29 = details: Homo sapiens, HT-29; HT29, Colon Cancer
# Experimental: as §1
# KM12 = details: Homo sapiens; KM12, Colon Cancer
# Experimental: as §1
# MALME-3M = details: Homo sapiens, Melanoma
# Experimental: as §1
# MDA-MB-435 = details: Homo sapiens; MDA-MB-435, Melanoma
# Experimental: as §1
# NCI-H322M = details: Homo sapiens, Non-Small Cell Lung Cancer
# Experimental: as §1
# NCI-H522 = details: Homo sapiens; NCI-H522, Non-Small Cell Lung Cancer
# Experimental: as §1
# OVCAR-5 = details: Homo sapiens; OVCAR-5, Ovarian Cancer
# Experimental: as §1
# OVCAR-8 = details: Homo sapiens; OVCAR-8, Ovarian Cancer
# Experimental: as §1
# RXF 393 = details: Homo sapiens; RXF 393, Renal Cancer
# Experimental: as §1
# SF-268 = details: Homo sapiens; SF-268, CNS Cancer
# Experimental: as §1
# SF-295 = details: Homo sapiens; SF-295, CNS Cancer
# Experimental: as §1
# SK-MEL-28 = details: Homo sapiens; SK-MEL-28, Melanoma
# Experimental: as §1
# SK-MEL-2 = details: Homo sapiens; SK-MEL-2, Melanoma
# Experimental: as §1
# SK-MEL-5 = details: Homo sapiens; SK-MEL-5, Melanoma
# Experimental: as §1
# SK-OV-3 = details: Homo sapiens; SK-OV-3, Ovarian Cancer
# Experimental: as §1
# SNB-19 = details: Homo sapiens; SNB-19, CNS Cancer
# Experimental: as §1
# SR = details: Homo sapiens, Leukemia
# Experimental: as §1
# UACC-257 = details: Homo sapiens; UACC-257, Melanoma
# Experimental: as §1
# UACC-62 = details: Homo sapiens; UACC-62, Melanoma
# Experimental: as §1
SMILES,GI50 (786-0),GI50 (A549/ATCC),GI50 (BT-549),GI50 (CAKI-1),GI50 (EKVX),GI50 (HCC-2998),GI50 (HCT-116),GI50 (HCT-15),GI50 (HL-60(TB)),GI50 (HOP-62),GI50 (HT29),GI50 (KM12),GI50 (MALME-3M),GI50 (MDA-MB-435),GI50 (NCI-H322M),GI50 (NCI-H522),GI50 (OVCAR-5),GI50 (OVCAR-8),GI50 (RXF 393),GI50 (SF-268),other results
"COc1cc2nccc(Oc3ccc(NC(=O)C4(NC(=O)c5ccc(F)cc5)CC4)cc3F)c2cc1OC [Cbo-02, N-(1-((4-((6,7-diMethoxyquinolin-4-yl)oxy)-3-fluorophenyl)carbamoyl)cyclopropyl)-4-fluorobenzamide]",1980 nM,3270 nM,1430 nM,1540 nM,1030 nM,2500 nM,1520 nM,2980 nM,2200 nM,1820 nM,1820 nM,2000 nM,1740 nM,1890 nM,3940 nM,2070 nM,1910 nM,3030 nM,2050 nM,4170 nM,GI50 (SF-295): 2310 nM; GI50 (SK-MEL-28): 1610 nM; GI50 (SK-MEL-2): 6150 nM; GI50 (SK-MEL-5): 4010 nM; GI50 (SK-OV-3): 2270 nM; GI50 (SNB-19): 3520 nM; GI50 (SR): 3330 nM; GI50 (UACC-257): 2830 nM; GI50 (UACC-62): 1840 nM
COc1cc2nccc(Oc3ccc(NC(=O)C4(NC(=O)c5ccc(F)cc5)CC4)cc3F)c2cc1Oc1ccc(N)cc1F [Cbo-10],> 100000 nM,483 nM,2410 nM,276 nM,488 nM,6040 nM,2630 nM,2410 nM,521 nM,3480 nM,413 nM,130 nM,313 nM,737 nM,518 nM,450 nM,644 nM,> 100000 nM,> 100000 nM,> 100000 nM,GI50 (SF-295): 304 nM; GI50 (SK-MEL-28): 1810 nM; GI50 (SK-MEL-2): > 100000 nM; GI50 (SK-MEL-5): 6970 nM; GI50 (SK-OV-3): 302 nM; GI50 (SNB-19): > 100000 nM; GI50 (SR): 345 nM; GI50 (UACC-257): 1720 nM; GI50 (UACC-62): 915 nM
COc1cc2nccc(Oc3ccc(NC(=O)C4(C(=O)Nc5ccc(F)cc5)CC4)cc3F)c2cc1Oc1ccc(N)cc1F [Cbo-23],860 nM,325 nM,2270 nM,192 nM,389 nM,2280 nM,592 nM,315 nM,596 nM,1200 nM,2150 nM,< 10 nM,298 nM,363 nM,444 nM,330 nM,389 nM,2060 nM,103 nM,1350 nM,GI50 (SF-295): 66.9 nM; GI50 (SK-MEL-28): 463 nM; GI50 (SK-MEL-2): 1360 nM; GI50 (SK-MEL-5): 1380 nM; GI50 (SK-OV-3): 464 nM; GI50 (SNB-19): 3130 nM; GI50 (SR): 93.8 nM; GI50 (UACC-257): 367 nM; GI50 (UACC-62): 112 nM
